Usually MIC stands for the smallest concentration in the dilution series that meets the test's criterion for growth inhibition. Low values mean greater potency, high ones weaker potency.

Among the data in patent publication EP1779853A2, “9a-azalides as veterinary antimicrobial agents” (Merial Ltd., priority 1997, dated 1999) are MIC values, retold here.

What all share (assay): MIC determination (culture tube dilution) against veterinary pathogens
What all share (type): cell-based

The subject of assay [1] is H. somnus. The note with it: one range summarising both compounds. The protocol:
(§1) The antibacterial activity of representative 9a-azalides against a panel of veterinary pathogens was determined by the minimum inhibitory concentration (MIC) method well known in the art. This is done by preparing a series of culture tubes, each containing a medium with a different concnetration of the antimicrobial agent, and inoculating all the tubes with the same organism. The lowest concentration of agent that completely prevents the appearance of turbidity is noted, and this concentration is called the MIC.

Assay [2] relates to Salmonella spp. The note with it: one range summarising both compounds. The procedure: as §1
Assay [3] relates to P. multocida. To be noted: Pasteurella multocida, one range summarising both compounds. The procedure:
as §1

The test system of assay [4] is E. coli. To be noted: Escherichia coli, one range summarising both compounds. The protocol:
as §1

The subject of assay [5] is P. haemolytica. The note with it: Mannheimia haemolytica, one range summarising both compounds. The protocol:
as §1

Assay [6] relates to A. pleuropneumoniae. To be noted: Actinobacillus pleuropneumoniae, one range summarising both compounds. The procedure: as §1

Molecules are shown by their SMILES. Values after ≈ are worked out from the molar mass of the structure shown.

`CC[C@H]1OC(=O)[C@H](C)[C@@H](O[C@H]2C[C@@](C)(OC)[C@@H](N)[C@H](C)O2)[C@H](C)[C@@H](O[C@@H]2O[C@H](C)C[C@H](N(C)C)[C@H]2O)[C@](C)(O)C[C@@H](C)CN(C)[C@H](C)[C@@H](O)[C@]1(C)O` [4"-deoxy-4"-aminoazithromycin]: the MIC fell in the range of 0.062 to 0.25 µg/mL (≈ 0.0829 to 0.334 µM) in assay [1]; 1 to 16 µg/mL (≈ 1.34 to 21.4 µM) in assay [2]; 0.125 to 2 µg/mL (≈ 0.167 to 2.67 µM) in assay [3]; 0.5 to 16 µg/mL (≈ 0.668 to 21.4 µM) in assay [4]; 0.125 to 0.5 µg/mL (≈ 0.167 to 0.668 µM) in assay [5]; 0.062 to 0.5 µg/mL (≈ 0.0829 to 0.668 µM) in assay [6].
As to `CC[C@H]1OC(=O)[C@H](C)[C@@H](O[C@H]2C[C@@](C)(OC)[C@@H](O)[C@H](C)O2)[C@H](C)[C@@H](O[C@@H]2O[C@H](C)C[C@H](N(C)C)[C@H]2O)[C@](C)(O)C[C@@H](C)CN(C)[C@H](C)[C@@H](O)[C@]1(C)O` [azithromycin, 9-deoxo-9a-aza-9a-methyl-9a-homoerythromycin A], the MIC is 0.062 to 0.25 µg/mL (≈ 0.0828 to 0.334 µM) in assay [1]; 1 to 16 µg/mL (≈ 1.34 to 21.4 µM) in assay [2]; 0.125 to 2 µg/mL (≈ 0.167 to 2.67 µM) in assay [3]; 0.5 to 16 µg/mL (≈ 0.668 to 21.4 µM) in assay [4]; 0.125 to 0.5 µg/mL (≈ 0.167 to 0.668 µM) in assay [5]; 0.062 to 0.5 µg/mL (≈ 0.0828 to 0.668 µM) in assay [6].
